# Experimental data published in US9316638B2, “Reagents for reducing leukocyte interference in immunoassays” (Abbott Point of Care Inc., priority 2010, dated 2016).
# Legend:
# leukocytes = experiment: BNP immunoassay signal slope (AmpActSlope) as indicator of leukocyte interference in enriched buffy blood samples (EBS); assay type: cell-based, human
# Procedure: The experiments described below were performed on a BNP assay, specifically an i-STAT® BNP cartridge (Abbott Point of Care, Princeton, N.J., USA) or a partially modified version thereof.
# As an experimental aid to understanding the affect of leukocytes on whole-blood immunoassays, it is desirable to create an enriched buffy (blood) sample (EBS). […] In the experiments described herein, the EBS constituted approximately a ten-fold increase in the buffy concentration, i.e. roughly 90% of the plasma and red cells were removed. The hematocrit value (Hct) of the sample was therefore maintained in the normal range, roughly 50-60%.
# As a baseline indicator of leukocyte interference, a cut-off value of a signal rate of change above 0.05 nA per second, was used (see right side y-axis, AmpActSlope). […] In the first group the enzyme is anticipated to remove substantially all the oxygen and the co-reactant glucose is added in substantial excess. The second group relies on glucose already in the sample to react with the enzyme. The third group is a control with added glucose and no enzyme.
# With respect to the first group (EBS+OX+Glu), the initial oxygen concentration of about 200 mm Hg falls to about 10 mm Hg after 50 minutes, and the glucose concentration drops from 700 to about 100 mg/dL over the same period. During this period immunoassays were run to determine the AmpActSlope value.
# To further characterize these effects, a study was run on a larger sample donor pool (15 donors multiple runs), as shown in FIG. 27. FIG. 27 is a scatter plot where the desirable AmpActSlope value is less than 0.05 and greater than −0.03 nA per second. In addition, in this particular experiment a maximum desirable sensor threshold current (ParamActDoc) was also set at 8.0 nA. The desirable result was therefore to minimize samples falling into the five segments around the target zone.
# [1] = glucose and oxygen concentrations in treated EBS samples (i-STAT CG8+ cartridges); assay type: biochemical, human; conditions: OX 4.0 IU per mL, Glu 700 mg/dL
# Procedure: In the first group the enzyme is anticipated to remove substantially all the oxygen and the co-reactant glucose is added in substantial excess. The second group relies on glucose already in the sample to react with the enzyme. The third group is a control with added glucose and no enzyme.
# Note that i-STAT® CG8+ cartridges (Abbott Point of Care, New Jersey, USA) were used to determine the glucose and oxygen concentrations.
# The “Sample 2” set of data was obtained where the treatment occurs in a closed syringe to prevent any oxygen being introduced from ambient air. […] The “Sample 3” data reflects opening the syringe about 20 minutes after the initial runs to allow ambient air access. This sample was run at the 40 minute mark. […] The “Sample 1” data in FIG. 28A is a control EBS+Glu only.
# [2] = From the text: While it is more common for a blood sample used in an immunoassay performed in a laboratory to be drawn from a vein, where point-of-care (or bedside, e.g. Emergency Room, Operating Room) testing is done, it is not uncommon for the sample to be drawn from an artery. […] To assess the impact of an arterial sample on the present assay, simulated arterial samples were generated and tested. […] Simulated samples were created with a tonometer using venous blood collected in an EDTA tube. The tonometer equilibrates the blood with a predetermined gas composition.
# Note these samples were not enriched as described above.
substance,measurement,setting,value
glucose oxidase,assayed samples with AmpActSlope below 0.05 nA per second,"leukocytes; EBS, OX 4.0 IU per mL, Glu 700 mg/dL, FIG. 26",9 out of 13
same,reduction in number of assays with slope above the desirable threshold,"leukocytes; addition of glucose oxidase, in general",about 90%
same,"difference in assays beyond threshold, treated vs untreated","leukocytes; treated 1.0% vs untreated 13.4%, FIG. 27",92.1%
same,"assays beyond threshold (AmpActSlope <0.05 and >-0.03 nA per second, ParamActDoc max 8.0 nA)","leukocytes; treated EBS+OX, N=287, 15 donors, FIG. 27",1.0%
same,glucose oxidase concentration in the sample found preferable,leukocytes; venous samples,> 3 IU per mL
same,glucose concentration after treatment,[1]; OX+Glu from 700 after 50 minutes,below 20 mg/dL
same,oxygen concentration (PO2) after treatment,"[1]; initial about 200 mm Hg, OX+Glu value after 50 minutes",about 50 mm Hg
same,inhibition of phagocytosis in arterial blood,[2]; glucose oxidase 6.0 IU and 12.0 IU per mL,sufficient to inhibit phagocytosis
same,partial pressure of oxygen in the sample,"[2]; simulated arterial blood, initial PO2 about 150 mm Hg, glucose oxidase 6.0 IU and 12.0 IU per mL",below 50 mm Hg
same,change in glucose and PO2,"[2]; tonometered whole blood, glucose oxidase 6 and 12 IU per mL, no added glucose",decreased glucose and PO2
